Values quoted from earlier work as cited in patent publication US11857510B2, “Methods and compositions for treating congenital diarrhea disorder” (NAPO PHARMACEUTICALS, INC., priority 2017, dated 2024).

Conditions: human, in vivo

Substance: Crofelemer
- absorption from the GI tract: little or no absorption
- systemic bioavailability: virtually no systemic bioavailability
- tolerability: well tolerated
